# Literature values in PMC8000041, “New Insights into the Metabolism of the Flavanones Eriocitrin and Hesperidin: A Comparative Human Pharmacokinetic Study” (Antioxidants, 2021).
# Design: method as in PMID 28970059
# Conditions: eriocitrin vs. hesperidin ref 28; cited from earlier work
smiles,measurement,value
"C[C@@H]1O[C@@H](OC[C@H]2O[C@@H](Oc3cc(O)c4c(c3)O[C@H](c3ccc(O)c(O)c3)CC4=O)[C@H](O)[C@@H](O)[C@@H]2O)[C@H](O)[C@H](O)[C@H]1O [eriocitrin, Eriocitrin]",Solubility,higher solubility
